Measured values taken from ChEMBL document CHEMBL4879554, “Data for DCP probe GNE-2256” (2021).

Assays:
[1] = biological target: Activin receptor type-2B (Homo sapiens) (UniProt Q13705); experiment: ACVR2B Kinase panel; conditions: Compound concentration 1.0 uM
[2] = biological target: RAC-alpha serine/threonine-protein kinase (Homo sapiens) (UniProt P31749); experiment: AKT1 Kinase panel; conditions: Compound concentration 1.0 uM
[3] = biological target: Calcium/calmodulin-dependent protein kinase kinase 2 (Homo sapiens) (UniProt Q96RR4); experiment: CAMKK2 Kinase panel; conditions: Compound concentration 1.0 uM
[4] = biological target: Cyclin-dependent kinase 1/cyclin B (Homo sapiens) (UniProt P06493+P14635+Q8WWL7+O95067); experiment: CDK1/cyclinB Kinase panel; type: protein-complex assay; conditions: Compound concentration 1.0 uM
[5] = biological target: Cyclin-dependent kinase 7/ cyclin H (Homo sapiens) (UniProt P51946+P50613); experiment: CDK7/cyclinH Kinase panel; type: protein-complex assay; conditions: Compound concentration 1.0 uM
[6] = biological target: Serine/threonine-protein kinase Chk2 (Homo sapiens) (UniProt O96017); experiment: CHK2 Kinase panel; conditions: Compound concentration 1.0 uM
[7] = biological target: Casein kinase I isoform gamma-1 (Homo sapiens) (UniProt Q9HCP0); experiment: CK1_gamma1 Kinase panel; conditions: Compound concentration 1.0 uM
[8] = biological target: Dual specificity protein kinase CLK3 (Homo sapiens) (UniProt P49761); experiment: CLK3 Kinase panel; conditions: Compound concentration 1.0 uM
[9] = biological target: Macrophage colony-stimulating factor 1 receptor (Homo sapiens) (UniProt P07333); experiment: CSF1R Kinase panel; conditions: Compound concentration 1.0 uM
[10] = biological target: Tyrosine-protein kinase CSK (Homo sapiens) (UniProt P41240); experiment: CSK Kinase panel; conditions: Compound concentration 1.0 uM
[11] = biological target: Calcium/calmodulin-dependent protein kinase type II subunit beta (Homo sapiens) (UniProt Q13554); experiment: CaMKII_beta Kinase panel; conditions: Compound concentration 1.0 uM
[12] = biological target: Calcium/calmodulin-dependent protein kinase type IV (Homo sapiens) (UniProt Q16566); experiment: CamKIV Kinase panel; conditions: Compound concentration 1.0 uM
[13] = biological target: Dual specificity tyrosine-phosphorylation-regulated kinase 3 (Homo sapiens) (UniProt O43781); experiment: DYRK3 Kinase panel; conditions: Compound concentration 1.0 uM
[14] = biological target: Epidermal growth factor receptor (Homo sapiens) (UniProt P00533); experiment: EGFR Kinase panel; conditions: Compound concentration 1.0 uM
[15] = biological target: Mitogen-activated protein kinase 1 (Homo sapiens) (UniProt P28482); experiment: ERK2 Kinase panel; conditions: Compound concentration 1.0 uM
Chain of Mitogen-activated protein kinase 1 (Homo sapiens) (P28482 whole entry): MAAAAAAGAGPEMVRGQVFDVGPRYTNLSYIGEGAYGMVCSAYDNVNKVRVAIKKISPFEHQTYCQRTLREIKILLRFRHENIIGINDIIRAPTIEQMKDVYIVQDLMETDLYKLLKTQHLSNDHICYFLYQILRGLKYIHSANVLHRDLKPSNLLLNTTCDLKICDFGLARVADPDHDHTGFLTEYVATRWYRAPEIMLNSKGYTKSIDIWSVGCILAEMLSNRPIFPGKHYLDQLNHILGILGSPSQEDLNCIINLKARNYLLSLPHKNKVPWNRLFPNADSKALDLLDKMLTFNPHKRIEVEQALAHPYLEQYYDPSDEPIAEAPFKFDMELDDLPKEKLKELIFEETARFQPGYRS

[16] = biological target: Ephrin type-B receptor 3 (Homo sapiens) (UniProt P54753); experiment: EphB3 Kinase panel; conditions: Compound concentration 1.0 uM
[17] = biological target: Focal adhesion kinase 1 (Homo sapiens) (UniProt Q05397); experiment: FAK Kinase panel; conditions: Compound concentration 1.0 uM
[18] = biological target: Fibroblast growth factor receptor 1 (Homo sapiens) (UniProt P11362); experiment: FGFR1 Kinase panel; conditions: Compound concentration 1.0 uM
[19] = biological target: Vascular endothelial growth factor receptor 3 (Homo sapiens) (UniProt P35916); experiment: Flt4 Kinase panel; conditions: Compound concentration 1.0 uM
[20] = biological target: Mitogen-activated protein kinase kinase kinase kinase 1 (Homo sapiens) (UniProt Q92918); experiment: HPK1 Kinase panel; conditions: Compound concentration 1.0 uM
[21] = biological target: Interleukin-1 receptor-associated kinase 1 (Homo sapiens) (UniProt P51617); experiment: IRAK1 Kinase panel; conditions: Compound concentration 1.0 uM
[22] = biological target: Tyrosine-protein kinase ITK/TSK (Homo sapiens) (UniProt Q08881); experiment: ITK Kinase panel; conditions: Compound concentration 1.0 uM
[23] = biological target: Tyrosine-protein kinase JAK1 (Homo sapiens, UniProt P23458); experiment: JAK1 Kinase panel
Chain of Tyrosine-protein kinase JAK1 (P23458 whole entry): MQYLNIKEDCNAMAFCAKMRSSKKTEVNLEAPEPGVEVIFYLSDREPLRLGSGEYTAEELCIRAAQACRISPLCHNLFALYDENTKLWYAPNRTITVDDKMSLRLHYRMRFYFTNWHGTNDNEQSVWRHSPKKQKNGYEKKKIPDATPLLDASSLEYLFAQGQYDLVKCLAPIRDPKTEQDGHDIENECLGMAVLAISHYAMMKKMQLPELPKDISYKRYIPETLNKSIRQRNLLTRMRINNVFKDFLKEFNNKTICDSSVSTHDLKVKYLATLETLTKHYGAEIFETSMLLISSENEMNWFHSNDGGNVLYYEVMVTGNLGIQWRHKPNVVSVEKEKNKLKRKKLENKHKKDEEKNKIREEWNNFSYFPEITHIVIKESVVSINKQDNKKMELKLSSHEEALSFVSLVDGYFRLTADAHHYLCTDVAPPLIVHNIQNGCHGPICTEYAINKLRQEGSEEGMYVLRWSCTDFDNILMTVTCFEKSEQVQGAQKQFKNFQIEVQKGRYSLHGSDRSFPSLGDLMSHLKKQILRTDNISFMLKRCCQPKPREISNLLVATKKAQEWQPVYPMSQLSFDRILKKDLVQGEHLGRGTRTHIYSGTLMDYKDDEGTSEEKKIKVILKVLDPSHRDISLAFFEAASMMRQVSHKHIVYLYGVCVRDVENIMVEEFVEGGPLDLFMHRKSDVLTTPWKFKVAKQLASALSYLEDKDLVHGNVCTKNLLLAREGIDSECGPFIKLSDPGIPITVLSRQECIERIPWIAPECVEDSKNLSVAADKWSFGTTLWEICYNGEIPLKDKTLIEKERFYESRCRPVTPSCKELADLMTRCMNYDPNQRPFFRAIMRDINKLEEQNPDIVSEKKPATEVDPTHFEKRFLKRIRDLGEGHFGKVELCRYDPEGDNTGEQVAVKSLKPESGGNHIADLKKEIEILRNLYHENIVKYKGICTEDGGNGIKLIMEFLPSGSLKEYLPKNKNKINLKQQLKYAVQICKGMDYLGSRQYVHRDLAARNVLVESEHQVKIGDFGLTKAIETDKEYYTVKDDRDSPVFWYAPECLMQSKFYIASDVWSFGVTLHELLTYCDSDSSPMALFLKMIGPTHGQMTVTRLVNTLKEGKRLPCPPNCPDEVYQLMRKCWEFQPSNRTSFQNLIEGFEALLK

[24] = biological target: Vascular endothelial growth factor receptor 2 (Homo sapiens) (UniProt P35968); experiment: KDR Kinase panel; conditions: Compound concentration 1.0 uM
[25] = biological target: Mitogen-activated protein kinase kinase kinase kinase 5 (Homo sapiens) (UniProt Q9Y4K4); experiment: KHS1 Kinase panel; conditions: Compound concentration 1.0 uM
[26] = biological target: Mast/stem cell growth factor receptor Kit (Homo sapiens) (UniProt P10721); experiment: Kit Kinase panel; conditions: Compound concentration 1.0 uM
[27] = biological target: MAP/microtubule affinity-regulating kinase 3 (Homo sapiens) (UniProt P27448); experiment: MARK3 Kinase panel; conditions: Compound concentration 1.0 uM
[28] = biological target: Maternal embryonic leucine zipper kinase (Homo sapiens) (UniProt Q14680); experiment: MELK Kinase panel; conditions: Compound concentration 1.0 uM
[29] = biological target: Mitogen-activated protein kinase kinase kinase 10 (Homo sapiens) (UniProt Q02779); experiment: MLK2 Kinase panel; conditions: Compound concentration 1.0 uM
Chain of Mitogen-activated protein kinase kinase kinase 10 (Homo sapiens) (Q02779 whole entry, looked up): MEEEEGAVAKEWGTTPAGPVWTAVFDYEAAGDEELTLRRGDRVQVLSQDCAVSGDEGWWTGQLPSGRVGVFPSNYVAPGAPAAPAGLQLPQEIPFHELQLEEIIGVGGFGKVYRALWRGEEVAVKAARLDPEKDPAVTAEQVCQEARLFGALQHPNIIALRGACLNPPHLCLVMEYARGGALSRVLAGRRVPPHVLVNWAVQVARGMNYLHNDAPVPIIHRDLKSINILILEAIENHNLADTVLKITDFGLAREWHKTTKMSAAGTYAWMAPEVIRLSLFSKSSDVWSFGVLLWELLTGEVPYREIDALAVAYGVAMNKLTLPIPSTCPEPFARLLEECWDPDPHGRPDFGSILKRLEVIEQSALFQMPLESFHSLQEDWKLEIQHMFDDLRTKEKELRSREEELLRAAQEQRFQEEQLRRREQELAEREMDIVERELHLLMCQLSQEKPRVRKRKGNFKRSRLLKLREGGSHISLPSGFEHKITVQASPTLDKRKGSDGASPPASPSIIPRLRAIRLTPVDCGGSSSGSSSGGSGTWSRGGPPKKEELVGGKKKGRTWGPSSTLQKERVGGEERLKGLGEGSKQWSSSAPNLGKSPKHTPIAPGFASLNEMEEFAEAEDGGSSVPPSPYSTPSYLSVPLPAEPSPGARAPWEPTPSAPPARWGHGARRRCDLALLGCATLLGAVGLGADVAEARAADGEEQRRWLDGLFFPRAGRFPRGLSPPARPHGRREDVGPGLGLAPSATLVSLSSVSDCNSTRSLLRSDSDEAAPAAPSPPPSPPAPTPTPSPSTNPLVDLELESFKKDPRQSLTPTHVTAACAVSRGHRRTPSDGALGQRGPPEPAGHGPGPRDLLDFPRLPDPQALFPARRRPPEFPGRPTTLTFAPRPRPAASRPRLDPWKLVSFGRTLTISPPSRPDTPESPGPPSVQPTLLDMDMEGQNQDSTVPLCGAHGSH

[30] = biological target: Ribosomal protein S6 kinase alpha-5 (Homo sapiens) (UniProt O75582); experiment: MSK1 Kinase panel; conditions: Compound concentration 1.0 uM
[31] = biological target: SRSF protein kinase 3 (Homo sapiens) (UniProt Q9UPE1); experiment: MSSK1 Kinase panel; conditions: Compound concentration 1.0 uM
[32] = biological target: Serine/threonine-protein kinase 4 (Homo sapiens) (UniProt Q13043); experiment: MST1 Kinase panel; conditions: Compound concentration 1.0 uM
[33] = biological target: Serine/threonine-protein kinase 3 (Homo sapiens) (UniProt Q13188); experiment: MST2 Kinase panel; conditions: Compound concentration 1.0 uM
[34] = biological target: Serine/threonine-protein kinase Nek6 (Homo sapiens) (UniProt Q9HC98); experiment: NEK6 Kinase panel; conditions: Compound concentration 1.0 uM
[35] = biological target: Serine/threonine-protein kinase PAK 1 (Homo sapiens) (UniProt Q13153); experiment: PAK1 Kinase panel; conditions: Compound concentration 1.0 uM
Chain of Serine/threonine-protein kinase PAK 1 (Homo sapiens) (Q13153 whole entry, canonical isoform): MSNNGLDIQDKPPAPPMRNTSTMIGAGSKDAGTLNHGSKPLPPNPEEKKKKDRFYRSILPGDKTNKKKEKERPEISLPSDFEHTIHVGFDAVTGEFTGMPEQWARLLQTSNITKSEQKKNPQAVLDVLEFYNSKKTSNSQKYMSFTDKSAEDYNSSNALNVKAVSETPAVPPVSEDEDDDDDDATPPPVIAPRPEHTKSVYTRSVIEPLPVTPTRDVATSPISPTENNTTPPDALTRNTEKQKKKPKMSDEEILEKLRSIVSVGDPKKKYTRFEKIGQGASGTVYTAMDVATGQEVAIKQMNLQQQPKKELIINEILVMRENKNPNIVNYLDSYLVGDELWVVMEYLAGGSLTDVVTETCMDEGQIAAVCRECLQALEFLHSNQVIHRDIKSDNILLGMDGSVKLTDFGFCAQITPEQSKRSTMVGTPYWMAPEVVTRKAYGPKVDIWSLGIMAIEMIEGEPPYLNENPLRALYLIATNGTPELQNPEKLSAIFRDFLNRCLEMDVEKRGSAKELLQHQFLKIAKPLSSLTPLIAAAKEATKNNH

[36] = biological target: Phosphatidylinositol 4,5-bisphosphate 3-kinase catalytic subunit gamma isoform (Homo sapiens) (UniProt P48736); experiment: PI3KG Kinase panel; conditions: Compound concentration 1.0 uM
[37] = biological target: Serine/threonine-protein kinase pim-1 (Homo sapiens) (UniProt P11309); experiment: PIM1 Kinase panel; conditions: Compound concentration 1.0 uM
Chain of Serine/threonine-protein kinase pim-1 (Homo sapiens) (P11309 whole entry, looked up): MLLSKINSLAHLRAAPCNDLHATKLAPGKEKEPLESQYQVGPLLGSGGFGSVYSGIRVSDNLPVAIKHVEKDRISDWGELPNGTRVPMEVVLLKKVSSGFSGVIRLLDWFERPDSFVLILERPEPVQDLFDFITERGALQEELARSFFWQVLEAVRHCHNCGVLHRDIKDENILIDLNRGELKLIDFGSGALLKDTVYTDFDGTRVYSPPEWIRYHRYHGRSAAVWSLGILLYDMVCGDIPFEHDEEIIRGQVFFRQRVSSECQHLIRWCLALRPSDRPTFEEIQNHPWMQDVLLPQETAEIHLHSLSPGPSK

[38] = biological target: Protein kinase C epsilon type (Homo sapiens) (UniProt Q02156); experiment: PKC_epsilon Kinase panel; conditions: Compound concentration 1.0 uM
Chain of Protein kinase C epsilon type (Homo sapiens) (Q02156 whole entry): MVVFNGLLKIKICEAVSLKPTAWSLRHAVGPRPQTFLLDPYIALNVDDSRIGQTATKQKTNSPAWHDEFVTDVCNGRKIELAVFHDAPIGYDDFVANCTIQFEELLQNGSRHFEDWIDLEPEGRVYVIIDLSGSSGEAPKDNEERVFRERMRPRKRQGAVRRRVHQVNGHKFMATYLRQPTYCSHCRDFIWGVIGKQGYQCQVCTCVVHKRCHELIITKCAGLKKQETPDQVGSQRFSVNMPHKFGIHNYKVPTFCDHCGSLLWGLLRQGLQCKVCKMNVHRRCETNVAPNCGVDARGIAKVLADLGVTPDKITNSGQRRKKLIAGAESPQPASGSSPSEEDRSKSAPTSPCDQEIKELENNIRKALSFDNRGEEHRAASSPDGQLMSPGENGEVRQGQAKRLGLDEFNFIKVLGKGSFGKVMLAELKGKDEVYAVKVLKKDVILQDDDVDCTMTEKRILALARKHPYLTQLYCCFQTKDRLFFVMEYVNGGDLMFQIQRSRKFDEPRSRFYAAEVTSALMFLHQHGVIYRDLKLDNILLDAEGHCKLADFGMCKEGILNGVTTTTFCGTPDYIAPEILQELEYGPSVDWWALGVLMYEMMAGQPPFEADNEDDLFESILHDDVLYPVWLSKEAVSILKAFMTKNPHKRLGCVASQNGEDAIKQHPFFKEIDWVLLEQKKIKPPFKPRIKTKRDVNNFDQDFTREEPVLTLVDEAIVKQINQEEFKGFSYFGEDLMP

[39] = biological target: Serine/threonine-protein kinase PLK2 (Homo sapiens) (UniProt Q9NYY3); experiment: PLK2 Kinase panel; conditions: Compound concentration 1.0 uM
[40] = biological target: Ribosomal protein S6 kinase alpha-3 (Homo sapiens) (UniProt P51812); experiment: RSK2 Kinase panel; conditions: Compound concentration 1.0 uM
[41] = biological target: Proto-oncogene tyrosine-protein kinase receptor Ret (Homo sapiens) (UniProt P07949); experiment: Ret Kinase panel; conditions: Compound concentration 1.0 uM
[42] = biological target: Tyrosine-protein kinase receptor TYRO3 (Homo sapiens) (UniProt Q06418); experiment: Rse Kinase panel; conditions: Compound concentration 1.0 uM
[43] = biological target: STE20-like serine/threonine-protein kinase (Homo sapiens) (UniProt Q9H2G2); experiment: SLK Kinase panel; conditions: Compound concentration 1.0 uM
Homo sapiens = species: Homo sapiens; experiment: (§1) TAO1 Kinase panel; conditions: Compound concentration 1.0 uM
[44] = biological target: Serine/threonine-protein kinase TAO1 (Homo sapiens) (UniProt Q7L7X3); experiment: as §1; conditions: Compound concentration 1.0 uM
[45] = biological target: Dual specificity protein kinase TTK (Homo sapiens) (UniProt P33981); experiment: TTK Kinase panel; conditions: Compound concentration 1.0 uM
[46] = biological target: Tyrosine-protein kinase Yes (Homo sapiens) (UniProt P07947); experiment: Yes Kinase panel; conditions: Compound concentration 1.0 uM
[47] = biological target: Mitogen-activated protein kinase kinase kinase 20 (Homo sapiens) (UniProt Q9NYL2); experiment: ZAK Kinase panel; conditions: Compound concentration 1.0 uM
[48] = biological target: 5-hydroxytryptamine receptor 1B (Homo sapiens) (UniProt P28222); conditions: Compound concentration 10.0 uM
Chain of 5-hydroxytryptamine receptor 1B (Homo sapiens) (P28222 whole entry): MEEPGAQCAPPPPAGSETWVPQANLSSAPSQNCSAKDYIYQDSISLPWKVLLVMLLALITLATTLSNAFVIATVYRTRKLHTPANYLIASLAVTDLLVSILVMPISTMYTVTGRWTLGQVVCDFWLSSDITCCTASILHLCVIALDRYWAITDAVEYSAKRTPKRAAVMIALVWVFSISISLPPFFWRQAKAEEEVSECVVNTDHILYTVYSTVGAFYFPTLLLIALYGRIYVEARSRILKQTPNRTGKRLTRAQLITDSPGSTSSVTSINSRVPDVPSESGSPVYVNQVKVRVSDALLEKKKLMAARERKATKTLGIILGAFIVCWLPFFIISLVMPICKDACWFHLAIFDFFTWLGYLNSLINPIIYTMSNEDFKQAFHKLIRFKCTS

[49] = biological target: D(1B) dopamine receptor (Homo sapiens) (UniProt P21918); conditions: Compound concentration 10.0 uM
[50] = biological target: Delta-type opioid receptor (Homo sapiens) (UniProt P41143); conditions: Compound concentration 10.0 uM
[51] = biological target: Histamine H1 receptor (Homo sapiens) (UniProt P35367); conditions: Compound concentration 10.0 uM
[52] = biological target: Muscarinic acetylcholine receptor M1 (Homo sapiens) (UniProt P11229); conditions: Compound concentration 10.0 uM
Chain of Muscarinic acetylcholine receptor M1 (Homo sapiens) (P11229 whole entry): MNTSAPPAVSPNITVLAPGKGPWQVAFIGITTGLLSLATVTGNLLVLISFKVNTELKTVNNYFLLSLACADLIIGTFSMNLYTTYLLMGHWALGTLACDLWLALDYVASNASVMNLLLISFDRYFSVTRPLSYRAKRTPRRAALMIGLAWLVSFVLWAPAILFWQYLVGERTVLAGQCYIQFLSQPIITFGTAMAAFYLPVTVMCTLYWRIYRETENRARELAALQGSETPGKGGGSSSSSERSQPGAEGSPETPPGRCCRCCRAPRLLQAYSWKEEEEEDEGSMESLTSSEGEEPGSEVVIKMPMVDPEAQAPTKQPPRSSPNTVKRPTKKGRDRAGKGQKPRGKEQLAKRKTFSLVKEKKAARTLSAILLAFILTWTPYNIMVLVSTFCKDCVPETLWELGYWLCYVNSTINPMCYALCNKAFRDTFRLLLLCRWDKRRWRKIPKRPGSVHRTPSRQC

[53] = biological target: Muscarinic acetylcholine receptor M2 (Homo sapiens) (UniProt P08172); conditions: Compound concentration 10.0 uM

## CC(C)(O)[C@H](F)CN1Cc2cc(NC(=O)c3cnn4cccnc34)c(N3CCOCC3)cc2C1=O
[1]
  inhibition: 12.5%
[2]
  inhibition: 0.5%
[3]
  inhibition: 8.5%
[4]
  inhibition: 2.5%
[5]
  inhibition: 4%
[6]
  inhibition: 13%
[7]
  inhibition: -3.5%
[8]
  inhibition: 10%
[9]
  inhibition: 25.3%
[10]
  inhibition: 22%
[11]
  inhibition: -5.5%
[12]
  inhibition: -6%
[13]
  inhibition: 2%
[14]
  inhibition: 6.8%
[15]
  inhibition: 0.5%
[16]
  inhibition: -0%
[17]
  inhibition: 19.5%
[18]
  inhibition: 5.5%
[19]
  inhibition: 13%
[20]
  inhibition: 13.3%
[21]
  inhibition: 64.3%
[22]
  inhibition: 21%
[23]
  IC50: 282 nM
[23]; Compound concentration 1.0 uM
  inhibition: 83.5%
[24]
  inhibition: 17%
[25]
  inhibition: 36.5%
[26]
  inhibition: 3%
[27]
  inhibition: 8.5%
[28]
  inhibition: 12.5%
[29]
  inhibition: 7.5%
[30]
  inhibition: -2%
[31]
  inhibition: 2.5%
[32]
  inhibition: -1%
[33]
  inhibition: 7%
[34]
  inhibition: 7%
[35]
  inhibition: 9%
[36]
  inhibition: 46.5%
[37]
  inhibition: 1.5%
[38]
  inhibition: 13%
[39]
  inhibition: -3.5%
[40]
  inhibition: 15%
[41]
  inhibition: 31.5%
[42]
  inhibition: 18%
[43]
  inhibition: 4%
Homo sapiens
  inhibition: 2%
[44]
  inhibition: 2%
[45]
  inhibition: 13%
[46]
  inhibition: 41.5%
[47]
  inhibition: 5.5%
[48]
  inhibition: 33%
[49]
  inhibition: -6.56%
[50]
  inhibition: -7.48%
[51]
  inhibition: 17.7%
[52]
  inhibition: -9.03%
[53]
  inhibition: -9.33%
